In patent EP1132396A1, “PHYSIOLOGICALLY ACTIVE PEPTIDES” (KYOWA HAKKO KOGYO CO., LTD., priority 1998, dated 2000):
In brackets after ≈: the same amount, converted by molar mass. Residues, ends and D or L forms follow the SMILES beside them.

Assays:
[1] = Water solubility of the peptides; type: physicochemical
Excerpt: The physicochemical properties of the peptides of the present invention obtained by the above-described process are shown below.

[2] = system: human peripheral blood leukocytes; test: Measurement of phagocytosis activity (fluorescence-labeled latex beads, flow cytometry); type: cell-based; conditions: rate based on the control (only PBS)
Procedure: To human peripheral blood was added physiological saline containing phosphate buffer (PBS), and the resulting mixture was centrifuged at 1000 rpm for 5 minutes to wash blood cells. Then, the blood cells were suspended in PBS to prepare a suspension having a density of 4 x 10^6 cells/ml. To 100 µl of the suspension was added 10 µl of a solution of a peptide in PBS, followed by incubation at 37°C for 10 minutes. Then, 10 µl of a suspension of 4 x 10^8/ml fluorescence-labeled latex beads opsonized with human peripheral blood was added thereto, and the resulting mixture was incubated for 5 minutes. To the mixture was added PBS containing ethylenediaminetetraacetic acid (EDTA) to stop the reaction. The resulting mixture was centrifuged to separate blood cells, and an ammonium chloride hemolyzing agent was added thereto for hemolysis to obtain leukocytes. After the obtained leukocytes were suspended in PBS containing EDTA, the resulting suspension was subjected to flow cytometry, and the number of cells which phagocytosed latex beads was calculated.
The results are expressed in terms of the rate based on the control (containing only PBS).

C3H/HeSlc mice = test: Effect on hair growth of mouse (feed administration); type: in vivo; conditions: 20th day, control group subtracted
Procedure: A test of the effect on hair growth of mice was carried out referring to the method of Ogawa, et al. [The Journal of Dermatology, 10, 45-54 (1983)].
Nine-weeks-old male C3H/HeSlc mice whose hair cycle was in the telogen (Japan SLC) were divided into groups each consisting of 4 or 5 mice. Hair on the back of each mouse was carefully shaven using electric hair clippers and an electric shaver. Then, the mice were fed with the feeds prepared in Reference Examples 1-4.
The control group was fed only with a powder feed containing no peptide of the present invention (CE-2, Clea Japan, Inc.)
On the 20th day after the start of the test, the skin on the back of each mouse was cut off and photographed. Using an image processor (Avionics Co., Spicca II), the percentage of the hair-grown area to the total area of the skin on the back was calculated. The rate of the increased hair-grown area (%) was obtained by subtracting the hair-growing rate of the control group from the hair-growing rate of the group fed with a powder feed containing a peptide of the present invention.

[3] = system: mouse hair follicle cells; test: Cell growth-promoting effect on cultured mouse hair follicle cells (Neutral Red); type: cell-based, C3H mouse; conditions: 5 days culture
Procedure: Mouse hair follicle cells were separated and cultured according to a modification of the method of Tanigaki, et al. [Archives of Dermatological Research, 284, 290-296 (1992)].
The skin on the back of a 4-days-old C3H mouse (Nippon Charles River Co., Ltd.) was cut off and treated with Eagle's MEM (Eagle's Minimum Essential Medium, Nissui Pharmaceutical Co., Ltd.) containing 500 units/ml Dispase (Godo Shusei Co., Ltd.) and 5% fetal calf serum (FCS) at 4°C for 16 hours. Then, the epidermis was stripped from the skin section, and the obtained dermis layer was treated with DMEM (Dulbecco's Modified Eagle Medium) containing 0.25% Collagenase N-2 (Nitta Gelatin Co., Ltd.) and 10% FCS at 37°C for one hour to obtain a dermis suspension. The dermis suspension was filtered through a 212-µm nylon mesh (Nippon Rikagaku Kikai Co., Ltd.) and the filtrate was centrifuged at 1000 rpm for 5 minutes to obtain pellets containing hair follicle tissue. To the pellets was added calcium/magnesium-free PBS (Dulbecco's Phosphate-Buffered Saline) and the pellets were suspended therein using a pipette. The resulting suspension was allowed to stand for 15 minutes to precipitate the hair tissue. The same procedure as above (addition of calcium/magnesium-free PBS, preparation of a suspension using a pipette, and precipitation by standing for 15 minutes) was repeated three times using the obtained hair tissue. Then, the hair tissue was treated with an aqueous solution containing 0.1% ethylenediaminetetraacetic acid (EDTA) and 0.25% trypsin (Gibco) at 37°C for 5 minutes. To the resulting mixture was added DMEM containing 10% FCS to prepare a hair tissue cell suspension having a density of 3 x 10^5 cells/ml.
This hair tissue cell suspension was put into wells of a 24-well collagen-coated plate (Iwaki Glass Co., Ltd.) in an amount of 1 ml/well, followed by culturing in 5% CO2 at 37°C for 24 hours. After the completion of culturing, the medium was replaced by a medium prepared by adding to MCDB153 medium (Kyokuto Pharmaceutical Ind. Co., Ltd.) 5 mg/l bovine insulin (Sigma Chemical Co.), 5 µg/l mouse epidermal growth factor (EGF) (Takara Shuzo Co., Ltd.), 40 mg/l bovine pituitary extract (Kyokuto Pharmaceutical Ind. Co., Ltd.), 10 mg/l human transferrin (Sigma Chemical Co.), 0.4 mg/l hydrocortisone (Sigma Chemical Co.), 0.63 µg/l progesterone (Collaborative Research Co.), 14 mg/l O-phosphoethanolamine (Sigma Chemical Co.), 6.1 mg/l ethanolamine (Sigma Chemical Co.), 50 U/ml penicillin (Wako Pure Chemical Industries, Ltd.), 50 µg/ml streptomycin (Wako Pure Chemical Industries, Ltd.) and a dimethyl sulfoxide (DMSO) solution containing a peptide of the present invention (added in an amount of 1/100 by volume based on the medium), followed by further culturing in 5% CO2 at 37°C for 5 days. During the culturing, the medium was replaced with a fresh one every other day.
As a control, the cells were cultured in the same medium as above except that DMSO containing no peptide was added in an amount of 1/100 by volume based on the culture in place of DMSO containing the peptide.
The degree of cell growth was measured referring to the method using Neutral Red [Journal of Tissue Culture Method, 9, 1, 7-9 (1984)].
After the completion of culturing, the medium was sucked and the resulting cells were cultured in MCDB153 medium containing 50 mg/l Neutral Red (Sigma Chemical Co.) in 5% CO2 at 37°C for 3 hours. […] The degree of cell growth was determined by measuring the absorbance of the extract at 540 nm. […]

solubility [1] [µg/mL]	Structure (SMILES)	Phagocytosis activity ([2]; Concentration 1 µM)	Phagocytosis activity ([2]; Concentration 3 µM)	Phagocytosis activity ([2]; Concentration 10 µM)	other results
200 (≈ 383 µM)	CC[C@H](C)[C@H](NC(=O)[C@@H](N)CCSC)C(=O)N[C@@H](Cc1ccccc1)C(=O)N[C@@H](CC(C)C)C(=O)O [MIFL] (H-MIFL-OH)	2.45 ± 0.17	3.06 ± 0.25	–	Phagocytosis activity ([2]; Concentration 0.1 µM): 1.10 ± 0.09; Phagocytosis activity ([2]; Concentration 0.3 µM): 1.68 ± 0.08
30000 (≈ 73300 µM)	CC[C@H](C)[C@H](NC(=O)[C@@H](N)CCSC)C(=O)N[C@@H](Cc1ccccc1)C(=O)O [MIF] (H-Met-Ile-Phe-OH)	–	–	–	Rate of increased hair-grown area (%) (C3H/HeSlc mice; 0.005% addition to feed): 26.8%
200 (≈ 409 µM)	CC[C@H](C)[C@H](NC(=O)[C@@H](NC(=O)[C@@H](N)CCSC)[C@@H](C)CC)C(=O)N[C@@H](CC(C)C)C(=O)O [MIIL] (H-MIIL-OH)	1.18 ± 0.07	1.62 ± 0.08	2.52 ± 0.18	Phagocytosis activity ([2]; Concentration 30 µM): 2.95 ± 0.20
200 (≈ 409 µM)	CC[C@H](C)[C@H](NC(=O)[C@@H](N)CCSC)C(=O)N[C@@H](CC(C)C)C(=O)N[C@@H](CC(C)C)C(=O)O [MILL] (H-MILL-OH)	–	1.28 ± 0.09	2.05 ± 0.08	Phagocytosis activity ([2]; Concentration 30 µM): 2.97 ± 0.17
200 (≈ 356 µM)	CC[C@H](C)[C@H](NC(=O)[C@@H](N)CCSC)C(=O)N[C@@H](Cc1c[nH]c2ccccc12)C(=O)N[C@@H](CC(C)C)C(=O)O [MIWL] (H-MIWL-OH)	3.11 ± 0.07	3.04 ± 0.50	–	Rate of increased hair-grown area (%) (C3H/HeSlc mice; 0.05% addition to feed): 34.4%; Phagocytosis activity ([2]; Concentration 0.1 µM): 1.93 ± 0.18; Phagocytosis activity ([2]; Concentration 0.3 µM): 2.74 ± 0.25
1000 (≈ 2230 µM)	CC[C@H](C)[C@H](NC(=O)[C@@H](N)CCSC)C(=O)N[C@@H](Cc1c[nH]c2ccccc12)C(=O)O [MIW] (H-Met-Ile-Trp-OH)	–	–	–	Relative cell growth rate (%) (based on the control) ([3]; Concentration 1 µM): 97%; Relative cell growth rate (%) (based on the control) ([3]; Concentration 3 µM): 143%; Relative cell growth rate (%) (based on the control) ([3]; Concentration 10 µM): 130%; Relative cell growth rate (%) (based on the control) ([3]; Concentration 30 µM): 123%; Relative cell growth rate (%) (based on the control) ([3]; Concentration 100 µM): 119%; Rate of increased hair-grown area (%) (C3H/HeSlc mice; 0.005% addition to feed): 20.7%; Rate of increased hair-grown area (%) (C3H/HeSlc mice; 0.05% addition to feed): 23.7%
300 (≈ 557 µM)	CC[C@H](C)[C@H](NC(=O)[C@@H](N)CCSC)C(=O)N[C@@H](Cc1ccc(O)cc1)C(=O)N[C@@H](CC(C)C)C(=O)O [MIYL] (H-MIYL-OH)	1.32 ± 0.15	2.21 ± 0.25	3.12 ± 0.32	–
